The source of these data is patent publication US20230399312A1, “SUBSTITUTED PYRIMIDINES AND METHODS OF USE” (THERAVANCE BIOPHARMA R&D IP, LLC, priority 2020, published 2023).

For experiment [1], the target named is T1, recombinant human ALK5 (TGF-βR1) protein (Homo sapiens, UniProt P36897).
T1 construct: purchased Life Technologies PR9075A
T1 sequence (P36897 34-503): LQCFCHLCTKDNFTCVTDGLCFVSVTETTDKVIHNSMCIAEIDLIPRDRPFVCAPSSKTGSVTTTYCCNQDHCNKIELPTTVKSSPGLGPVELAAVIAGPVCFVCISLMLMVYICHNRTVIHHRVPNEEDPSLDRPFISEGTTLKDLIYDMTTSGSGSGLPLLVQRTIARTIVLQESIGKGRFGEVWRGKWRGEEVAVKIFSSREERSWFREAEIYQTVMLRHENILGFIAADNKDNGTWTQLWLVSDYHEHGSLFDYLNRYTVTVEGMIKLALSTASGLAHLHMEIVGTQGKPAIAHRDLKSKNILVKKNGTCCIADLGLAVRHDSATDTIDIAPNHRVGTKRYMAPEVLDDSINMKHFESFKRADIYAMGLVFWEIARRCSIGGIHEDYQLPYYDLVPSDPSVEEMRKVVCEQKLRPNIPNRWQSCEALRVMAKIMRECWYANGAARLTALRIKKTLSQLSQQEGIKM
Nature of the experiment: Biochemical ALK5 (TGF-βR1) assay to measure pKi (LANCE Ultra ULight kinase assay). The conditions noted are these: apparent pKi, converted from pIC50 by Cheng-Prusoff. In a few lines: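 Dose-response series of each compound were preincubated with the kinase for 60 minutes at room temperature. Phosphorylation proceeded for 60 minutes at 37 °C after ATP addition, was quenched with EDTA, and was detected with a europium anti-phospho-Thr1342 antibody by TR-FRET; pKi was calculated from pIC50.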

The test system of experiment [2] is TGF-β-stimulated SMAD3 phosphorylation in BEAS-2B cells. Nature of the experiment: Cellular ALK5 potency assay, inhibition of TGF-β stimulated pSMAD3 formation in BEAS-2B cells. It is filed as cell-based. The conditions noted are these: Homo sapiens, pSMAD3, TGF-β 10 ng/mL, read-out: BEAS2B pIC50 (converted). The procedure, abridged:
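BEAS-2B cells, HBSS/25 mM HEPES/1% BSA buffer; cpd 1 h, 37 °C; TGF-β 10 ng/mL final, 30 min; lysis, AlphaLISA pSMAD3 read next day. pIC50 vs stimulated no-compound baseline.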

For the compound `Cc1cccc(-c2nccc(Nc3ccnc(Nc4ccc(N5CCNCC5)c(C#N)c4)n3)n2)n1` [Compound 447, 5-[[4-[[2-(6-methyl-2-pyridyl)pyrimidin-4-yl]amino]pyrimidin-2-yl]amino]-2-piperazin-1-yl-benzonitrile], the Ki in experiment [1] is 0.0398 to 0.316 nM. Besides, in experiment [2], the IC50 was 25.1 to 158 nM.

Turning to `Cc1cccc(-c2nccc(Nc3ccnc(Nc4ccc(N5CCN(C(CCO)C(=O)O)CC5)cc4)n3)n2)n1` (centres unmarked) [Compound 448, 4-hydroxy-2-[4-[4-[[4-[[2-(6-methyl-2-pyridyl)pyrimidin-4-yl]amino]pyrimidin-2-yl]amino]phenyl]piperazin-1-yl]butanoic acid], in experiment [1], the Ki is 0.0398 to 0.316 nM. Besides, the IC50 in experiment [2] was 25.1 to 158 nM.

`CC[C@H](C)OC(=O)CC1CNCCN1c1ccc(Nc2nccc(Nc3ccnc(-c4cccc(C)n4)n3)n2)cc1` (stereo partly drawn) [Compound 449, [(1S)-1-methylpropyl] 2-[1-[4-[[4-[[2-(6-methyl-2-pyridyl)pyrimidin-4-yl]amino]pyrimidin-2-yl]amino]phenyl]piperazin-2-yl]acetate]: the Ki in experiment [1] is 0.0398 to 0.316 nM. Also, in experiment [2], the IC50 was 25.1 to 158 nM.

With `Cc1cccc(-c2nccc(Nc3ccnc(Nc4ccc(N5CCC(NCc6ccccc6)CC5)cc4)n3)n2)n1` [Compound 450, N2-[4-[4-(benzylamino)-1-piperidyl]phenyl]-N4-[2-(6-methyl-2-pyridyl)pyrimidin-4-yl]pyrimidine-2,4-diamine], the Ki in experiment [1] was 0.0398 to 0.316 nM. Besides, in experiment [2], the IC50 was 200 to 1260 nM.

For the compound `COC(=O)CC1CN(Cc2ccc(Nc3nccc(Nc4ccnc(-c5cccc(C)n5)n4)n3)cc2)CCN1` (centres unmarked) [Compound 451, methyl 2-[4-[[4-[[4-[[2-(6-methyl-2-pyridyl)pyrimidin-4-yl]amino]pyrimidin-2-yl]amino]phenyl]methyl]piperazin-2-yl]acetate], in experiment [1], the Ki was 0.0398 to 0.316 nM. For the same compound, the IC50 in experiment [2] is 25.1 to 158 nM.

In the case of `Cc1cccc(-c2nccc(Nc3ccnc(Nc4csc(NC(=O)C5CCNCC5)c4)n3)n2)n1` [Compound 452, N-(4-((4-((2-(6-methylpyridin-2-yl)pyrimidin-4-yl)amino)pyrimidin-2-yl)amino)thiophen-2-yl)piperidine-4-carboxamide], the Ki in experiment [1] was 0.0398 to 0.316 nM. Further, the IC50 in experiment [2] was not above 20 nM.

`Cc1cccc(-c2nccc(Nc3ccnc(Nc4ccc(CN5C[C@H](C)NC[C@@H]5C)cc4)n3)n2)n1` [Compound 453, N2-[4-[[(2S,5S)-2,5-dimethylpiperazin-1-yl]methyl]phenyl]-N4-[2-(6-methyl-2-pyridyl)pyrimidin-4-yl]pyrimidine-2,4-diamine]: in experiment [1], the Ki is 0.0398 to 0.316 nM. For the same compound, in experiment [2], the IC50 is 25.1 to 158 nM.

Regarding `Cc1cccc(-c2nccc(Nc3ccnc(Nc4ccc(N5CCCC(C(=O)O)C5)cc4)n3)n2)n1` (centres unmarked) [Compound 454, 1-[4-[[4-[[2-(6-methyl-2-pyridyl)pyrimidin-4-yl]amino]pyrimidin-2-yl]amino]phenyl]piperidine-3-carboxylic acid], in experiment [1], the Ki was 0.0398 to 0.316 nM. Besides, the IC50 in experiment [2] was 200 to 1260 nM.

As to `Cc1cccc(-c2nccc(Nc3ccnc(Nc4ccc(NS(=O)(=O)c5c[nH]cn5)cc4)n3)n2)n1` [Compound 455, N-[4-[[4-[[2-(6-methyl-2-pyridyl)pyrimidin-4-yl]amino]pyrimidin-2-yl]amino]phenyl]-1H-imidazole-4-sulfonamide], the Ki in experiment [1] is 0.398 to 3.16 nM. Further, the IC50 in experiment [2] is 200 to 1260 nM.

For the compound `Cc1cccc(-c2nccc(Nc3ccnc(Nc4ccc(N5CCN(C6CC6)CC5)cc4)n3)n2)n1` [Compound 457, N2-[4-(4-cyclopropylpiperazin-1-yl)phenyl]-N4-[2-(6-methyl-2-pyridyl)pyrimidin-4-yl]pyrimidine-2,4-diamine], the Ki in experiment [1] was 0.0398 to 0.316 nM. Besides, the IC50 in experiment [2] was 25.1 to 158 nM.

Regarding `Cc1cccc(-c2nccc(Nc3ccnc(Nc4ccc(C)c(CN5C6CCC5CNC6)c4)n3)n2)n1` [Compound 458, N2-[3-(3,8-diazabicyclo[3.2.1]octan-8-ylmethyl)-4-methyl-phenyl]-N4-[2-(6-methyl-2-pyridyl)pyrimidin-4-yl]pyrimidine-2,4-diamine], the Ki in experiment [1] is 0.0398 to 0.316 nM. In experiment [2], the IC50 is 25.1 to 158 nM.

For the compound `Cc1cccc(-c2nccc(Nc3ccnc(Nc4cccc(C(=O)O[C@@H]5CCNC5)c4)n3)n2)n1` [Compound 459, [(3R)-pyrrolidin-3-yl] 3-[[4-[[2-(6-methyl-2-pyridyl)pyrimidin-4-yl]amino]pyrimidin-2-yl]amino]benzoate], the Ki in experiment [1] was 0.398 to 3.16 nM. The IC50 in experiment [2] was 25.1 to 158 nM.

As for `Cc1cccc(-c2nccc(Nc3ccnc(Nc4nc(CN5CCC[C@@H](C(=O)O[C@@H]6CCN(C)C6)C5)cs4)n3)n2)n1` [Compound 460, [(3R)-1-methylpyrrolidin-3-yl] (3R)-1-[[2-[[4-[[2-(6-methyl-2-pyridyl)pyrimidin-4-yl]amino]pyrimidin-2-yl]amino]thiazol-4-yl]methyl]piperidine-3-carboxylate], the Ki in experiment [1] was 0.0398 to 0.316 nM. Further, the IC50 in experiment [2] was 25.1 to 158 nM.

For the compound `Cc1cccc(-c2nccc(Nc3ccnc(Nc4ccc(F)c(CN5CCSCC5)c4)n3)n2)n1` [Compound 461, N2-[4-fluoro-3-(thiomorpholinomethyl)phenyl]-N4-[2-(6-methyl-2-pyridyl)pyrimidin-4-yl]pyrimidine-2,4-diamine], in experiment [1], the Ki is 0.398 to 3.16 nM. For the same compound, the IC50 in experiment [2] was 25.1 to 158 nM.

`COC(=O)CC1CNCCN1c1ccc(Nc2nccc(Nc3ccnc(-c4cccc(C)n4)n3)n2)cc1` (centres unmarked) [Compound 462, methyl 2-[1-[4-[[4-[[2-(6-methyl-2-pyridyl)pyrimidin-4-yl]amino]pyrimidin-2-yl]amino]phenyl]piperazin-2-yl]acetate]: the Ki in experiment [1] was 0.0398 to 0.316 nM. Further, the IC50 in experiment [2] was 25.1 to 158 nM.

Take `Cc1cccc(-c2nccc(Nc3ccnc(Nc4ccc(CN5CCN[C@H](CO)C5)cc4)n3)n2)n1` [Compound 463, [(2S)-4-[[4-[[4-[[2-(6-methyl-2-pyridyl)pyrimidin-4-yl]amino]pyrimidin-2-yl]amino]phenyl]methyl]piperazin-2-yl]methanol]: the Ki in experiment [1] was 0.0398 to 0.316 nM. Further, in experiment [2], the IC50 was 25.1 to 158 nM.

For `Cc1cccc(-c2nccc(Nc3ccnc(Nc4ccc(C(=O)O[C@@H]5CCN(C)C5)cc4)n3)n2)n1` [Compound 464, [(3R)-1-methylpyrrolidin-3-yl] 4-[[4-[[2-(6-methyl-2-pyridyl)pyrimidin-4-yl]amino]pyrimidin-2-yl]amino]benzoate], in experiment [1], the Ki was 0.0398 to 0.316 nM. Besides, in experiment [2], the IC50 was 25.1 to 158 nM.

Turning to `Cc1cccc(-c2nccc(Nc3ccnc(Nc4ccc(NC(=O)C5CCN(C6CCNC6)CC5)cc4)n3)n2)n1` (centres unmarked) [Compound 465, N-[4-[[4-[[2-(6-methyl-2-pyridyl)pyrimidin-4-yl]amino]pyrimidin-2-yl]amino]phenyl]-1-pyrrolidin-3-yl-piperidine-4-carboxamide], the Ki in experiment [1] is 0.0398 to 0.316 nM. The IC50 in experiment [2] is not above 20 nM.

As to `CC[C@H](C)OC(=O)Cc1cc(Nc2nccc(Nc3ccnc(-c4cccc(C)n4)n3)n2)ccc1N1CCNCC1` [Compound 466, [(1S)-1-methylpropyl] 2-[5-[[4-[[2-(6-methyl-2-pyridyl)pyrimidin-4-yl]amino]pyrimidin-2-yl]amino]-2-piperazin-1-yl-phenyl]acetate], the Ki in experiment [1] was 0.0398 to 0.316 nM. In addition, in experiment [2], the IC50 is 25.1 to 158 nM.
